Results on 5 compounds are retold here after patent publication US20210268004A1, “COMPOSITION CONTAINING BECLOMETHASONE FOR THE PREVENTION AND THE TREATMENT OF BACTERIAL PROSTATITIS AND VAGINITIS” (SOFAR S.P.A., priority 2018, published 2021).

Where two headings read alike, the source gives them in different places.

Data set [1] concerns colorectal mucosa (epithelial tissue of the human colon reconstructed in 3D). Particulars: for recovery %: human. The procedure:
The trial was conducted according to the OCSE TG 428-EU approved method used for percutaneous penetration.
Like in the first trial, the test was conducted at 37° C. and relative humidity >90%.
Like in the first phase, the test was conducted at 37° C. and relative humidity >90%.

For data set [2] the following is noted: rectal treatment; cited from earlier work.

`CCC(=O)OCC(=O)[C@@]1(OC(=O)CC)[C@@H](C)C[C@H]2[C@@H]3CCC4=CC(=O)C=C[C@]4(C)[C@@]3(Cl)[C@@H](O)C[C@@]21C` [BDP A, beclomethasone dipropionate]: in data set [1], the “recovery Total” value was determined as 149.81. This compound returned a recovery % in data set [1] (24 h, 5 mg/mL) of 200%. The like results for `CCC(=O)OCC(=O)[C@@]1(OC(=O)CC)[C@@H](C)C[C@H]2[C@@H]3CCC4=CC(=O)C=C[C@]4(C)[C@@]3(Cl)[C@@H](O)C[C@@]21C` [BDP B, beclomethasone dipropionate] were, in that order, 133.53 and 89%. As to `CCC(=O)OCC(=O)[C@@]1(OC(=O)CC)[C@@H](C)C[C@H]2[C@@H]3CCC4=CC(=O)C=C[C@]4(C)[C@@]3(Cl)[C@@H](O)C[C@@]21C` [BDP C, beclomethasone dipropionate], the “recovery Total” value in data set [1] was 112.53. The compound further gave a recovery % in data set [1] (24 h, 5 mg/mL) of 75%.

On to `CCC(=O)OCC(=O)[C@@]1(OC(=O)CC)[C@@H](C)C[C@H]2[C@@H]3CCC4=CC(=O)C=C[C@]4(C)[C@@]3(Cl)[C@@H](O)C[C@@]21C` [BDP D, beclomethasone dipropionate], for which the “recovery Total” value in data set [1] was 1339.30. The recovery % in data set [1] (48 h, 200 mg/mL) was determined as 22%. Consider `CCC(=O)OCC(=O)[C@@]1(OC(=O)CC)[C@@H](C)C[C@H]2[C@@H]3CCC4=CC(=O)C=C[C@]4(C)[C@@]3(Cl)[C@@H](O)C[C@@]21C` [BDP, beclomethasone dipropionate], for which the adverse effects entry in data set [2] is “almost without the adverse effects typical of steroids”.
